The results in this text go back to ChEMBL document CHEMBL1128128, “Relationship between structure and bioavailability in a series of hydroxamate based metalloprotease inhibitors” (Bioorg Med Chem Lett, 1995).

Data set [1] is described as follows: Biliary excretion when administered intravenously at a dose of 5 mg/kg in rats. It counts as ADME, organism-based. Further details: dose 5 mg/kg, route intravenous. The following applies: rat, bile, iv, read-out: Biliary excretion.
The next data set deals with T1, Interstitial collagenase (Homo sapiens, UniProt P03956).
T1 sequence (P03956 whole entry): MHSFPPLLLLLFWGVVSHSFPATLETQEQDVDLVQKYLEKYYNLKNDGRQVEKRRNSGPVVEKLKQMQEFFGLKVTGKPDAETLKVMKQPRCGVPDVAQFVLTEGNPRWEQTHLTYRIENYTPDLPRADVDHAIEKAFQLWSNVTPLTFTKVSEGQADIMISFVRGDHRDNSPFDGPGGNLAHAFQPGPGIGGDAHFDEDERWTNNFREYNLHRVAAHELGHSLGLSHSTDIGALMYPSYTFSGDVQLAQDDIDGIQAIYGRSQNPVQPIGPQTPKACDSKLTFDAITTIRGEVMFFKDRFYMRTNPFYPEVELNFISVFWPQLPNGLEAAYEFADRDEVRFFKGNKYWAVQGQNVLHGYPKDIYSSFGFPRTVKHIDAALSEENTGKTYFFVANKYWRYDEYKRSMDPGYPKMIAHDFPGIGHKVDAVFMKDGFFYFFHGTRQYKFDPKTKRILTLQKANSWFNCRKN
As to the kind of experiment: Evaluated for inhibitory activity against Human fibroblast collagenase (HFC).

A short description of data set [2]: Plasma half-life in rats. Type of data set: ADME, organism-based. The following applies: rat.
A further data set is filed under the species Rattus norvegicus. The experiment in a line: Plasma half-life in rats; <MQL. It counts as ADME, organism-based. The following applies: in vivo.
Data set [3] can be described thus: Biliary excretion when administered intravenously at a dose of 2.5 mg/kg in rats. Type of data set: ADME, organism-based. Further details: dose 2.5 mg/kg, route intravenous. As to conditions: rat, bile, iv, read-out: Biliary excretion.
A short description of data set [4]: Maximum concentration in portal vein was determined at a concentration of 20 mg/kg in rats. Type of data set: ADME, organism-based. Details: dose 20 mg/kg. As to conditions: rat, portal vein blood.
Data set [5] is described as follows: Plasma half-life was determined. It counts as ADME, cell-free.
The nature of data set [6]: Maximum concentration in portal vein was determined at a concentration of 10 mg/kg in rats. It counts as ADME, organism-based. Details: dose 10 mg/kg. The following applies: rat, portal vein blood.

In general, Ki refers to a measure of affinity in units of concentration, obtained from inhibition or displacement. Read a low Ki as tighter binding. As a reminder, the half-life is the time in which the quantity being followed falls by half. Low readings indicate rapid decline, high ones slow decline. Regarding `CC(C)C[C@H](CC(=O)NO)C(=O)N[C@@H](Cc1c[nH]c2ccccc12)C(=O)NCCSc1ccccc1`, the dose excreted in data set [1] is 43.9%. In addition, the affinity on Interstitial collagenase, expressed as Ki, was 3 nM. The same molecule gave a half-life in data set [2] of 33.3 min.

Consider `CSCCNC(=O)[C@H](Cc1c[nH]c2ccccc12)NC(=O)[C@@H](CC(=O)NO)CC(C)C`, for which the dose excreted in data set [1] came out at 27.3%. For the same molecule, affinity on Interstitial collagenase was put at a Ki of 5 nM. In data set [2], this molecule displayed a half-life of 32.4 min.

For `CSCCCNC(=O)[C@H](Cc1c[nH]c2ccccc12)NC(=O)[C@@H](CC(=O)NO)CC(C)C`, the dose excreted in data set [1] amounted to 53%. At Interstitial collagenase, this molecule came in with a Ki of 1 nM. Further, the half-life in data set [2] amounted to 37 min.

Consider `COCCNC(=O)[C@H](Cc1c[nH]c2ccccc12)NC(=O)[C@@H](CC(=O)NO)CC(C)C`, for which the dose excreted in data set [1] came out at 59.2%. The Ki on Interstitial collagenase came out at 5 nM. In data set [2], this molecule yielded a half-life of 19 min.

`COc1ccc(C(=O)CCCCNC(=O)[C@H](Cc2c[nH]c3ccccc23)NC(=O)[C@@H](CC(=O)NO)CC(C)C)cc1`: in data set [1], the dose excreted was found to be 74.5%. Besides, the inhibition constant Ki at Interstitial collagenase came out at 2 nM. The half-life in data set [2] stood at 2.5 min.

In the case of `CC(C)C[C@H](CC(=O)NO)C(=O)N[C@@H](Cc1c[nH]c2ccccc12)C(=O)NCCCCC(=O)O`, the dose excreted in data set [1] worked out at 108%. The molecule also gave an inhibitory constant (Ki) at Interstitial collagenase of 1 nM. The molecule further displayed a half-life in data set [2] of 6.9 min.

On to `CC(C)C[C@H](CC(=O)NO)C(=O)N[C@@H](Cc1c[nH]c2ccccc12)C(=O)NCc1ccc(CN(C)C)cc1`, for which the T1/2 result in the data set listed under Rattus norvegicus was “<MQL”. Also, the dose excreted in data set [3] turned out to be 80.7%. At Interstitial collagenase, the Ki stood at 4 nM.

Take `CC(C)C[C@H](CC(=O)NO)C(=O)N[C@@H](Cc1c[nH]c2ccccc12)C(=O)NCCS(N)(=O)=O`: the dose excreted in data set [1] is 61.3%. The molecule also yielded an inhibition constant (Ki) on Interstitial collagenase of 6 nM. Besides, the half-life in data set [2] turned out to be 17.6 min.

As for `CC(C)C[C@H](CC(=O)NO)C(=O)N[C@@H](Cc1c[nH]c2ccccc12)C(=O)NCCCN(C)C`, the dose excreted in data set [1] worked out at 18.1%. The molecule also displayed a Ki at Interstitial collagenase of 3 nM. In addition, the half-life in data set [2] turned out to be 25 min.

As a reminder, the Cmax is the peak of the concentration-time curve. As to `CCSCCNC(=O)[C@H](Cc1c[nH]c2ccccc12)NC(=O)[C@@H](CC(=O)NO)CC(C)C`, the dose excreted in data set [1] worked out at 46%. In addition, the Ki on Interstitial collagenase stood at 3 nM. The same molecule displayed a Cmax in data set [4] of 900 ng/mL. The same molecule had a half-life in data set [2] of 37.6 min.

With `CC(C)C[C@H](CC(=O)NO)C(=O)N[C@@H](Cc1c[nH]c2ccccc12)C(=O)NCCN(C)C`, the half-life in data set [5] was found to be 21 min. In addition, the dose excreted in data set [1] turned out to be 18.9%. The molecule also returned a Ki on Interstitial collagenase of 12 nM.

For the molecule `CC(C)C[C@H](CC(=O)NO)C(=O)N[C@@H](Cc1c[nH]c2ccccc12)C(=O)NCC[S+](C)[O-]` (stereo not given in full), in data set [1], the dose excreted amounted to 44.8%. Moreover, at Interstitial collagenase, affinity was put at a Ki of 2 nM. In data set [2], the half-life is 7.4 min.

Take `CC(C)C[C@H](CC(=O)NO)C(=O)N[C@@H](Cc1c[nH]c2ccccc12)C(=O)NCCSCCN(C)C`: in data set [1], the dose excreted was 60.8%. Also, the Ki at Interstitial collagenase is 5 nM. In data set [6], this molecule registered a maximum concentration (Cmax) of 2800 ng/mL. In addition, the half-life in data set [2] is 43.7 min.

`CC(C)C[C@H](CC(=O)NO)C(=O)N[C@@H](Cc1c[nH]c2ccccc12)C(=O)NCCCCN(C)C`: the dose excreted in data set [3] stood at 17.9%. This molecule also had a Ki at Interstitial collagenase of 3 nM. Moreover, the half-life in data set [2] came to 26.6 min.

With `CC(C)C[C@H](CC(=O)NO)C(=O)N[C@@H](Cc1c[nH]c2ccccc12)C(=O)NCCSCCN1CCOCC1`, the dose excreted in data set [1] was determined as 30.8%. Also, on Interstitial collagenase, the inhibition constant Ki was 4 nM. This molecule also registered a half-life in data set [2] of 42.5 min.

Regarding `CC(C)C[C@H](CC(=O)NO)C(=O)N[C@@H](Cc1c[nH]c2ccccc12)C(=O)NCCS(C)(=O)=O`, the dose excreted in data set [1] was found to be 67.2%. At Interstitial collagenase, this molecule registered a Ki of 3 nM. The half-life in data set [2] amounted to 24 min.

For the molecule `CC(C)C[C@H](CC(=O)NO)C(=O)N[C@@H](Cc1c[nH]c2ccccc12)C(=O)NCCCCOCc1ccccc1`, in data set [1], the dose excreted turned out to be 99.9%. For the same molecule, affinity on Interstitial collagenase was put at a Ki of 2 nM. The molecule also yielded a half-life in data set [2] of 27 min.

Consider `CNC(=O)[C@H](Cc1ccc(OC)cc1)NC(=O)[C@@H](CC(=O)NO)CC(C)C`, for which the dose excreted in data set [1] came to 84.1%. Further, the half-life in data set [2] stood at 9 min.
